The target of one data set is T1, human MC4 receptor (Homo sapiens, UniProt P32245).
T1 construct: purchased Biolinks Co; host or cells: HEK-293 cell membranes
Put plainly: MC4 receptor binding assay. The following applies: HEK-293 cell membranes expressing human MC4 receptor; [125I]Nle4-D-Phe7-α-MSH 0.2 nM; 25° C., 120 minutes. As to the method:
Experiment 1 [MC4 Receptor Binding Assay]
MC4 receptor binding assay was carried out according to the method described in Pharmacology & Taxicology, 79, 161-165, 1996, HEK-293 cell membranes expressing the human MC4 receptor were purchased from Biolinks Co. The cell membranes were homogenized in a 50 mM Tris hydrochloric acid buffer solution (pH 7.4) containing 2 mM ethylenediamine tetraacetic acid, 10 mM calcium chloride and 100 μM phenylmethanesulfonyl-fluoride. The homogenate was centrifuged at 48,000×g for 20 minutes at 4° C. The precipitate obtained by centrifugation was again homogenized in the same buffer solution, and the homogenate was centrifuged at 48,000×g for 20 minutes at 4° C. This procedure was repeated twice. The precipitate was suspended in 50 mM Tris hydrochloric acid buffer solution (pH 7.4) containing 2 mM ethylenediamine tetraacetic acid, 10 mM calcium chloride, 100 μM phenylmethanesulfonylfluoride and 0.1% bovine serum albumin to adjust to a protein concentration of 100 μg/ml to give a crude membrane preparation which was used for the binding assay. […] The radioactivity on the filter paper was measured in a gamma-counter. […] The IC50 value was calculated from the inhibition curve in the concentration range of 10^−9-10^−5.

In data set [1] the test system is Male SD rats. The data set can be described thus: Anti-anxiety action in Vogel test (Conflict test) in rats. The settings on record: subcutaneous 1 mg/kg, 3 mg/kg or 10 mg/kg, 30 minutes before test; electric shock 1.0 mA; 3 minutes; FIG. 2. The class given is in vivo, rat. As to the method:
Anti-anxiety action of Compound 4 in Table 1 in Vogel test (Conflict test) in rats was studied.
Male SD rats weighing 220 to 240 g (Charles River Japan Inc.) were used. Rats deprived of drinking water for 48 hours were divided into 10 animals for each group. To rats of group to be administered with the test compound was subcutaneously administered the test compound which was prepared by dissolving a predetermined amount of Compound 4 in Table 1 in saline for injection and adding 0.5 M aqueous sodium hydroxide solution to adjust to pH 4-5. Thirty minutes after the administration, rats were placed in a apparatus for the test, and drinking behaviors during the time of free access to drinking water for 3 minutes were measured. During the time of free access to drinking water, an electric shock (1.0 mA) was released, every 2 seconds of cumulative licking time to the drinking nozzle. The evaluation of this experiment was carried out using the number of the electric shocks.

In data set [2] the test system is Male SD rats. Put plainly: Anti-anxiety action in forced swim stress-induced anxiety model of rats (elevated plus-maze test). Format: in vivo, rat. The following applies: subcutaneous 0.3 mg/kg, 1 mg/kg or 3 mg/kg, 30 minutes before 2-minute forced swim stress, 5-minute period, FIG. 3. The protocol:
Anti-anxiety action of Compound 4 in Table 1 in forced swim stress-induced anxiety model of rats was studied.
Male SD rats weighing 220 to 240 g (Charles River Japan Inc.) were used. Rats were divided into 10 animals for each group. To rats of group to be administered with the test compound was subcutaneously administered the test compound which was prepared by dissolving a predetermined amount of the test drug in saline for injection and adding 0.5 M aqueous sodium hydroxide solution to adjust to pH 4-5. Thirty minutes after the administration, rats were exposed to a forced swim stress by placing in a black cylinder (20 cm internal diameter, 40 cm high) containing 25 cm deep of water maintained at 25° C. Duration of the forced swim stress was 2 minutes, and the anti-anxiety action was studied by the elevated plus-maze test, which was carried out 5 minutes after the forced swim stress.
The elevated plus-maze used for the test consisted of open arms (10 cm wide, 50 cm long) and close arms (10 cm wide, 50 cm long), and the open arms and the enclosed arms were covered with 1 cm-high and 40 cm-high transparent Plexiglas, respectively. The plus-maze was placed in 50 cm high from the floor. Luminosity at the center of the maze was 40 lux. […] The amount of time spent in open arms of the maze was recorded during a 5-minute period.

Data set [3] concerns olfactory bulbectomized rats. Put plainly: Anti-depressant action in olfactory bulbectomized rats (open field). Format: in vivo, rat. The following applies: subcutaneous 1 mg/kg, 3 mg/kg or 10 mg/kg once a day for 2 weeks; test 24 hours after final administration; 3 minutes; FIG. 4. An excerpt:
Anti-depressant action of Compound 4 in Table 1 in olfactory bulbectomized rats was studied. Male SD rats weighing 220 to 240 g (Charles River Japan Inc.) were used. Rats were anesthetized with sodium pentobarbital, the olfactory bulbs were removed by suction using a metal pipe linked to a water aspirator. Two weeks after the removal of the olfactory bulbs, rats were divided into 10 to 11 animals for each group. The rats of one group were subcutaneously administered once a day for 2 weeks with the test drug which was prepared by dissolving a predetermined amount of the test drug in saline for injection and adding 0.5 M aqueous sodium hydroxide solution to adjust to pH 4-5. Twenty four hours after the final administration, the rats were placed in the center of a circular open field apparatus (70 cm diameter 25 blocks), and the number of crossings among blocks during 3 minutes was counted.

Data set [4] has as its system recombinant human melanocortin receptors. Put plainly: Antagonism in recombinant human melanocortin receptors.
Data set [5] deals with Male SD rats. Put plainly: Anxiogenic-like activity in Vogel test in rat (Proconflict test). Format: in vivo. The settings on record: intracerebroventricular administration, 30 minutes before test; electric shock 0.4 mA; 3 minutes; FIG. 1. As to the method:
Anxiogenic-like activity inducing action by α-MSH and MTII in Vogel test in rat (Proconflict test) was studied.
α-MSH and MTII were purchased from Peninsula Laboratories. Male SD rats weighing 220 to 240 g (Charles River Japan Inc.) were used for animals. Rats deprived of drinking water for 48 hours were divided into 5 animals for each group. The test compound was administered to rats intracerbroventricularly at 10 μl/2 min. of the test compound which was prepared by dissolving a predetermined amount of α-MSH or MTII in saline containing 0.1% bovine serum albumin. To control rats which were not administered test compound, saline containing 0.1% bovine serum albumin was administered intracerebroventricularly at 10 μl/2 min. Thirty minutes after the administration, rats were placed in a apparatus for the test, and drinking behaviors during the time of free access to drinking water for 3 minutes were measured. During the time of free access to drinking water, an electric shock (0.4 mA) was released, every 2 seconds of cumulative licking time to the drinking nozzle. The evaluation of this experiment was carried out using the number of the electric shocks.

Where a name gives a salt, the structure may show the parent alone.

T1 sequence (P32245 whole entry): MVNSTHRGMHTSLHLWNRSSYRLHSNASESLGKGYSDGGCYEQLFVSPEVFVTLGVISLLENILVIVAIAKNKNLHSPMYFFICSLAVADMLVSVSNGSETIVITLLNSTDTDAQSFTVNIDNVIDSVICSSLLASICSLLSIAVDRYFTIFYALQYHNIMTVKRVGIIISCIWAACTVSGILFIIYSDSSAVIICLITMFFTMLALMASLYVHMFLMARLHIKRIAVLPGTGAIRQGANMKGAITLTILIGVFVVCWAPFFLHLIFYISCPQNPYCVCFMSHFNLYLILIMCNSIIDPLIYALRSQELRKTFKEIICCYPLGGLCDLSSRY

`CC(C)N1CCN(C(CN2CCN(CCCCc3cccc4ccccc34)CC2)c2ccc(F)cc2)CC1.O=C(O)/C=C\C(=O)O.O=C(O)/C=C\C(=O)O.O=C(O)/C=C\C(=O)O` (stereo not shown) showed a melting point of 127 to 129 °C.
`N=C(N)N1CCN(C(CN2CCN(CCCCc3cccc4ccccc34)CC2)c2ccc(F)cc2)CC1.O=C(O)/C=C\C(=O)O.O=C(O)/C=C\C(=O)O.O=C(O)/C=C\C(=O)O` (stereo not shown) showed a melting point of 171 to 173 °C.
With `COc1ccc(C(CN2CCN(CCCCc3cccc4ccccc34)CC2)N2CCN(C)CC2)cc1.O=C(O)/C=C\C(=O)O.O=C(O)/C=C\C(=O)O.O=C(O)/C=C\C(=O)O` (stereo not shown), the melting point was in the range of 138 to 140 °C.
Same read-out and setting: with `CN1CCN(C(CN2CCN(CCCCc3cccc4ccccc34)CC2)c2ccc(N)cc2)CC1.O=C(O)/C=C\C(=O)O.O=C(O)/C=C\C(=O)O.O=C(O)/C=C\C(=O)O` (stereo not shown) the figure was 152 to 154 °C; with `CN1CCN(C(CN2CCN(CCCCc3noc4cc(F)ccc34)CC2)c2ccc(F)cc2)CC1.O=C(O)/C=C\C(=O)O.O=C(O)/C=C\C(=O)O.O=C(O)/C=C\C(=O)O` (stereo not shown), 170 to 173 °C.
The same measure, in the same setting: with `CN1CCN(C(CN2CCN(CCCCc3cccc4ccccc34)CC2)c2ccc(F)cc2)CC1.Cl` (stereo not shown) the figure was 193 to 195 °C.
The molecule `CC(C)Oc1ccc2ccccc2c1CCCCN1CCN(CC(c2ccc(F)cc2)N2CCN(C(C)C)CC2)CC1.O=C(O)/C=C\C(=O)O.O=C(O)/C=C\C(=O)O.O=C(O)/C=C\C(=O)O` (stereo not shown) registered a melting point of 167 to 169 °C.
Consider `COc1ccc2ccccc2c1CCCCN1CCN(CC(c2ccc(F)cc2)N2CCN(C(C)C)CC2)CC1.Cl.Cl.Cl.Cl` (stereo not shown), for which the melting point lay within 183 to 185 °C.
`COc1ccc2ccccc2c1CCCCN1CCN(CC(c2ccc(F)cc2)C2CCN(C(C)C)CC2)CC1.Cl.Cl.Cl` (stereo not shown) had a melting point of 233 to 235 °C.
On the same count and under the same terms, with `CN1CCC(O)(C(CN2CCN(CCCCc3cccc4ccccc34)CC2)c2ccc(F)cc2)CC1.Cl.Cl.Cl` (stereo not shown) the figure was 156 to 160 °C.
On to `CN1CCN(C(CN2CCN(CCCCc3cccc4ccccc34)CC2)c2ccc(F)cc2)CC1` (single isomer, unassigned; (-)) [Compound 6, (−)-1-[2-(4-Fluorophenyl)-2-(4-methylpiperazino)ethyl]-4-[4-naphthalen-1-yl-butyl]piperazine hydrochloride], for which, at human MC4 receptor, the half-inhibitory concentration (IC50) amounted to 90 nM.
Take `CN1CCN(C(CN2CCN(CCCCc3cccc4ccccc34)CC2)c2ccc(F)cc2)CC1.Cl.Cl.Cl.Cl` (stereo not shown) [Compound 4, 1-[2-(4-fluorophenyl)-2-(4-methylpiperazino)ethyl]-4-(4-naphthalen-1-yl-butyl)piperazine tetrahydrochloride]: the melting point is 193 to 195 °C. The IC50 on human MC4 receptor turned out to be 164 nM. In addition, the “decreased number of times of drinking water (number of the electric shocks) caused by electric shock” value in the data set with Male SD rats [1] was “significantly, dose-dependently antagonized”. In addition, in the data set on Male SD rats [2], the “decreased amount of time spent in open arms after forced swim stress” value was “significantly, dose-dependently antagonized”. In addition, the “increased number of crossings among blocks in the open field” value in data set [3] is “significantly, dose-dependently antagonized”. In addition, the “action in recombinant human melanocortin receptors (selectivity)” value in data set [4] is “high selective antagonist”.
Regarding MTII, the “number of times of drinking water (number of the electric shocks) in comparison with the control group” value in the data set with Male SD rats [5] is on record as “dose-dependently, significantly decreased”.
On to “α-MSH (Ac-SYSMEHFRWGKPV-NH2; ends and bridges not checked; UniProt P01189 138-150, looked up) [melanocyte stimulating hormone (melanocortin produced from POMC), purchased from Peninsula Laboratories]”, for which, in the data set on Male SD rats [5], the “number of times of drinking water (number of the electric shocks) in comparison with the control group” value is “dose-dependently, significantly decreased”.

One may read the melting point as the temperature of the solid-liquid transition. The IC50 is the concentration that gives 50% inhibition. Low values mean greater potency in that assay, high ones weaker potency in that assay.

The record behind these values is patent US6949552B2, “Remedial agent for anxiety neurosis or depression and piperazine derivative” (Taisho Pharmaceutical Co., Ltd., priority 2000, dated 2005).
